Assays:
[1] = target: T1, SSTR4 (Homo sapiens, UniProt P31391); assay: Inhibition of forskolin stimulated cAMP in CHO-K1 cells overexpressing SSTR4; type: cell-based; conditions: read-out: SSTR4 Activity pEC50 (converted)
T1 construct: host or cells: CHO-K1
How it was run: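 CHO-K1 cells overexpressing SSTR4 treated 30 min at room temperature with compound in Krebs Ringer buffer containing 0.5% BSA, 300 μM IBMX and 350 nM forskolin. Intracellular cAMP measured by HTRF LANCE Ultra (665/615 nm); pEC50 values reported.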

[2] = target: T1, SSTR4; assay: SSTR4 I-125 somatostatin competition binding assay (CHO-K1 membranes); conditions: competition with I-125 somatostatin, membranes from CHO-K1 overexpressing SSTR4; read-out: SSTR4 Binding pIC50 (converted)
Description: SSTR4 I-125 Somatostatin Competition Binding Assay
Membranes from CHO-K1 cells overexpressing SSTR4 are purchased from Perkin Elmer (catalog number ES-524-M400UA). Test compounds are suspended in DMSO and then diluted in assay buffer (25 mM HEPES pH 7.4, 10 mM MgCl2, 1 mM CaCl2), 0.5% BSA) plus 0.2 nM I-125 labeled somatostatin (Perkin Elmer catalog number NEX389). Fifty μL of compound/I-125 somatostatin in assay buffer are added per well to 96-well poly-propylene plate. Then 1 μg of SSTR4 membranes in 50 μL assay buffer are added per well. The Plate is incubated for 60 minutes at room temperature. FilterMat A filters (Perkin Elmer catalog number 1450-421) are pre-soaked in 0.5% PEI (Sigma catalog number P3143). The contents of the assay plate are transferred to filters with a TomTech harvester and washed 5 times with 20 mM HEPES, 100 mM NaCl. The filters are dried in a microwave oven then transferred to sample bag containing a scintillator sheet (Perkin Elmer catalog number 1450-441). The scintillator sheets are melted to filters using a heat block. The filters are then read in a MicroBeta scintillation counter. Binding Ki curves are generated using Activity Base for Screening Data Management and the results are reported as pIC50.

[3] = target: T2, SSTR1 (Homo sapiens, UniProt P30872); assay: SSTR1 I-125 somatostatin competition binding assay for selectivity versus SSTR1 (CHO-K1 membranes); conditions: competition with I-125 somatostatin, membranes from CHO-K1 overexpressing SSTR1; read-out: SSTR1 Binding pIC50 (converted)
T2 construct: purchased Perkin Elmer ES-520-M400UA; host or cells: CHO-K1 membranes
Description: SSTR1 I-125 Somatostatin Competition Binding Assay for Selectivity Versus SSTR1
Membranes from CHO-K1 cells overexpressing SSTR1 are purchased from Perkin Elmer (catalog number ES-520-M400UA). Test compounds are suspended in DMSO and then diluted in assay buffer (25 mM HEPES pH 7.4, 10 mM MgCl2, 1 mM CaCl2), 0.5% BSA) plus 0.4 nM I-125 labeled somatostatin (Perkin Elmer catalog number NEX389). Fifty μL of compound/I-125 somatostatin in assay buffer are added per well to 96-well poly-propylene plate. Then 10 μg of SSTR1 membranes in 50 μL assay buffer are added per well. The plate is incubated for 60 minutes at room temperature. FilterMat A filters (Perkin Elmer catalog number 1450-421) are pre-soaked in 0.5% PEI (Sigma catalog number P3143). The contents of the assay plate are transferred to filters with a TomTech harvester and washed 5 times with 20 mM HEPES, 100 mM NaCl. The filters are dried in a microwave oven then transferred to sample bag containing a scintillator sheet (Perkin Elmer catalog number 1450-441). The scintillator sheets are melted to the filters using a heat block. The filters are then read in a MicroBeta scintillation counter. Binding Ki curves are generated using Activity Base for Screening Data Management and the results are reported as pIC50.

T1 sequence (P31391 whole entry): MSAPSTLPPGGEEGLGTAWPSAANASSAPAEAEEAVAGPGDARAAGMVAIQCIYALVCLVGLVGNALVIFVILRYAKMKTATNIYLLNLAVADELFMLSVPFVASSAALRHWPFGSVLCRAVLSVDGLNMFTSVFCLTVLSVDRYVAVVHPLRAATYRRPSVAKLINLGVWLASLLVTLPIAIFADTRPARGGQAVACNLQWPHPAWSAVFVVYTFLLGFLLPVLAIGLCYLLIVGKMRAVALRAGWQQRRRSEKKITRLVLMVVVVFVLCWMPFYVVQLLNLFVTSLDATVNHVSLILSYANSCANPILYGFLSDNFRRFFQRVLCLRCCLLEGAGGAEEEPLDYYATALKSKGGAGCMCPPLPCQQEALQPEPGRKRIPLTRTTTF
T2 sequence (P30872 whole entry): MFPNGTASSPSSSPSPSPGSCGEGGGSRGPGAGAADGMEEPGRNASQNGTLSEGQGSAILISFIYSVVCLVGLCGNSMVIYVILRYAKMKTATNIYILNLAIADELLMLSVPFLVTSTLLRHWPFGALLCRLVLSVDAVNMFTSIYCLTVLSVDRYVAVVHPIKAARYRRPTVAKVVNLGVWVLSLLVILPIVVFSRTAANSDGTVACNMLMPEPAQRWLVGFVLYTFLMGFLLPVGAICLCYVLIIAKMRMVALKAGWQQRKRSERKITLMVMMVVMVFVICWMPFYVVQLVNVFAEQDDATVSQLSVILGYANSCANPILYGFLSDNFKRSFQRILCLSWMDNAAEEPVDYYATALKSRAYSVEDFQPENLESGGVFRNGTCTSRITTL

EC50 [1] [µM]	IC50 [2] [µM]	IC50 [3] [µM]	SMILES
0.01	0.158	15.8	CC(CN1CCCC1)C(=O)NC(C)(C)c1ccccc1Cl (stereo not drawn) [Example 135, N-(2-(2-chlorophenyl)propan-2-yl)-2-methyl-3-(pyrrolidin-1-yl)propanamide]
0.00316	0.0631	6.31	Cc1cccc2c(C(C)(C)NC(=O)CC3CCCCN3C)noc12 (stereo not drawn) [Example 41, N-(2-(7-methylbenzo[d]isoxazol-3-yl)propan-2-yl)-2-(1-methylpiperidin-2-yl)acetamide]
0.0126	0.126	7.94	Cc1cccc2c(C(C)(C)NC(=O)C[C@@H]3CCCCN3C)nccc12 (single isomer, unassigned) [Example 9]
0.00794	0.126	7.94	Cc1cccnc1OCC1(NC(=O)[C@H](C)[C@@H]2CCCN2C)CC1 (single isomer, unassigned) [Example 127]
0.0251	0.158	10	CN1CCC[C@H]1CC(=O)NC(C)(C)c1nn(C)c2ccccc12 [Example 4, (S)-N-(2-(1-methyl-1H-indazol-3-yl)propan-2-yl)-2-(1-methylpyrrolidin-2-yl)acetamide]
0.00158	0.0126	1	CC[C@H](CN1CCC1)C(=O)NC(C)(C)c1ccc(F)cc1 (single isomer, unassigned) [Example 182]
0.0631	0.398	> 50.1	CN1CCC[C@@H]1CC(=O)NC(C)(C)c1cccc(F)c1Cl [Example 94, (R)-N-(2-(2-chloro-3-fluorophenyl)propan-2-yl)-2-(1-methylpyrrolidin-2-yl)acetamide]
0.00794	0.0631	2.51	Cc1cc2ccccc2c(C(C)(C)NC(=O)C[C@@H]2CCCN2C)n1 [Example 22, (S)-N-(2-(3-methylisoquinolin-1-yl)propan-2-yl)-2-(1-methylpyrrolidin-2-yl)acetamide]
0.0126	0.0794	25.1	Cc1cccc2c(C(C)(C)NC(=O)C[C@@H]3CCCN3C)noc12 [Example 21, (S)-N-(2-(7-methylbenzo[d]isoxazol-3-yl)propan-2-yl)-2-(1-methylpyrrolidin-2-yl)acetamide]
0.0126	0.126	15.8	COc1ccc(C(C)(C)NC(=O)[C@H](C)CN2CCC2)cc1 (single isomer, unassigned) [Example 138]
0.0251	0.316	15.8	CN1CCC[C@H]1CC(=O)NC(C)(C)COc1ncccc1C(F)(F)F [Example 48, (S)-N-(2-methyl-1-((3-(trifluoromethyl)pyridin-2-yl)oxy)propan-2-yl)-2-(1-methylpyrrolidin-2-yl)acetamide]
0.00631	0.0631	10	Cc1cccc2c(C(C)(C)NC(=O)CC3CCCN3C)nn(C)c12 (stereo not drawn) [Example 1, N-(2-(1,7-dimethyl-1H-indazol-3-yl)propan-2-yl)-2-(1-methylpyrrolidin-2-yl)acetamide]

More lines, now with the values behind:

SMILES	EC50 [1] [µM]	IC50 [2] [µM]	IC50 [3] [µM]
Cc1cccnc1OCC1(NC(=O)C(C)C2CCCN2C)CC1 (stereo not drawn) [Example 71, N-(1-(((3-methylpyridin-2-yl)oxy)methyl)cyclopropyl)-2-(1-methylpyrrolidin-2-yl)propanamide]	0.0316	0.251	25.1
Cc1cccc(C(C)(C)NC(=O)[C@@H](C)CN2CCC2)c1Cl (single isomer, unassigned) [Example 145]	0.000794	0.02	1.26
CC[C@@H](CN1CCC1)C(=O)N[C@H](c1cccc(F)c1)C(F)F [Example 195, (S)-2-(azetidin-1-ylmethyl)-N-((R)-2,2-difluoro-1-(3-fluorophenyl)ethyl)butanamide]	0.002	0.00251	1
CN1CCCCC1CC(=O)NC(C)(C)c1nccc2ccccc12 (stereo not drawn) [Example 6, N-(2-(isoquinolin-1-yl)propan-2-yl)-2-(1-methylpiperidin-2-yl)acetamide]	0.00158	0.0251	2.51
Cc1ccc([C@H](CF)NC(=O)CCN2CCC2)cc1 (single isomer, unassigned) [Example 175]	0.02	0.158	31.6
CN1CCC[C@@H]1CC(=O)NC(C)(C)c1nn(C)c2ccccc12 [Example 3, (R)-N-(2-(1-methyl-1H-indazol-3-yl)propan-2-yl)-2-(1-methylpyrrolidin-2-yl)acetamide]	0.0251	0.2	5.01
O=C(CCN1CCC1)N[C@H](c1cc(F)ccc1F)C(F)F (single isomer, unassigned) [Example 169]	0.00251	0.316	39.8
CN1CCCCC1CC(=O)NC(C)(C)c1cc(Cl)ccc1Cl (stereo not drawn) [Example 45, N-(2-(2,5-dichlorophenyl)propan-2-yl)-2-(1-methylpiperidin-2-yl)acetamide]	0.0251	0.158	7.94
COc1ccccc1C(C)(C)NC(=O)[C@H](C)CN1CCCC1 (single isomer, unassigned) [Example 75]	0.00251	0.0316	10
CC[C@@H](CN1CCC1)C(=O)NC(C)(C)c1ccc(F)cc1 (single isomer, unassigned) [Example 183]	0.0501	0.501	20
Cc1cccc(C(C)(C)NC(=O)C[C@@H]2CCCN2C)c1C [Example 92, (S)-N-(2-(2,3-dimethylphenyl)propan-2-yl)-2-(1-methylpyrrolidin-2-yl)acetamide]	0.0631	1	> 50.1
O=C(CCN1CCCC1)N[C@H](c1cccc(Cl)c1)C(F)F (single isomer, unassigned) [Example 198]	0.00631	0.02	7.94
C[C@H](CN1CCC1)C(=O)N[C@@H](CF)c1ccccc1 (single isomer, unassigned) [Example 205]	0.00126	0.0251	2.51
COc1c(C)cccc1C(C)(C)NC(=O)[C@H](C)CN1CCC1 (single isomer, unassigned) [Example 146]	0.00251	0.02	2.51
C[C@@H](CN1CCC1)C(=O)NC(C)(C)c1ccccc1Cl (single isomer, unassigned) [Example 134]	0.00126	0.0501	6.31
Cc1cccc2c(C(C)(C)NC(=O)CC3CCCCN3C)nccc12 (stereo not drawn) [Example 7, N-(2-(5-methylisoquinolin-1-yl)propan-2-yl)-2-(1-methylpiperidin-2-yl)acetamide]	0.00398	0.0794	5.01
CC(C)(NC(=O)CCN1CCC1)c1ccc(Cl)cc1 [Example 165, 3-(azetidin-1-yl)-N-(2-(4-chlorophenyl)propan-2-yl)propanamide]	0.01	0.0794	25.1
CC[C@@H](CN1CCC1)C(=O)N[C@H](c1ccccc1OC)C(F)F [Example 189, (S)-2-(azetidin-1-ylmethyl)-N-((R)-2,2-difluoro-1-(2-methoxyphenyl)ethyl)butanamide]	0.001	0.00794	0.631
CC(C)(COc1ncccc1C(F)F)NC(=O)CC12CCCN1CCC2 [Example 78, N-(1-((3-(difluoromethyl)pyridin-2-yl)oxy)-2-methylpropan-2-yl)-2-(tetrahydro-1H-pyrrolizin-7a(5H)-yl)acetamide]	0.251	10	> 50.1

— patent US20230150981A1, “N-HETEROARYLALKYL-2-(HETEROCYCLYL AND HETEROCYCLYLMETHYL) ACETAMIDE DERIVATIVES AS SSTR4 AGONISTS” (Takeda Pharmaceutical Compnay Limited, priority 2020, published 2023)
